{"source": "PubChem BioAssay (NCI)", "assay_in_all_cases": "NCI anticancer screen, dose series, 384-well format", "key": {"OVCAR-4 ovarian": {"tested_on": "OVCAR-4 ovarian"}, "SNB-19 CNS": {"tested_on": "SNB-19 CNS"}, "UACC-62 melanoma": {"tested_on": "UACC-62 melanoma"}, "A498 renal": {"tested_on": "A498 renal"}, "SF-539 CNS": {"tested_on": "SF-539 CNS"}, "SN12C renal": {"tested_on": "SN12C renal"}, "SW-620 colon": {"tested_on": "SW-620 colon"}, "DU-145 prostate": {"tested_on": "DU-145 prostate"}, "MOLT-4 leukemia": {"tested_on": "MOLT-4 leukemia"}, "HS 578T breast": {"tested_on": "HS 578T breast"}, "ACHN renal": {"tested_on": "ACHN renal"}, "KM12 colon": {"tested_on": "KM12 colon"}, "CAKI-1 renal": {"tested_on": "CAKI-1 renal"}, "SF-295 CNS": {"tested_on": "SF-295 CNS"}, "HCT-15 colon": {"tested_on": "HCT-15 colon"}, "HCT-116 colon": {"tested_on": "HCT-116 colon"}, "SK-MEL-28 melanoma": {"tested_on": "SK-MEL-28 melanoma"}, "BT-549 breast": {"tested_on": "BT-549 breast"}, "SR leukemia": {"tested_on": "SR leukemia"}, "K-562 leukemia": {"tested_on": "K-562 leukemia"}, "SK-MEL-2 melanoma": {"tested_on": "SK-MEL-2 melanoma"}, "OVCAR-8 ovarian": {"tested_on": "OVCAR-8 ovarian"}, "HT29 colon": {"tested_on": "HT29 colon"}, "UO-31 renal": {"tested_on": "UO-31 renal"}, "HOP-62 NSCLC": {"tested_on": "HOP-62 NSCLC"}, "RXF 393 renal": {"tested_on": "RXF 393 renal"}, "U251 glioblastoma": {"tested_on": "U251 glioblastoma"}, "NCI-H522 lung": {"tested_on": "NCI-H522 lung"}}, "note": "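At the GI50, growth is halved. TGI is the concentration that stops growth completely.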"}
{"smiles": "COc1ccc(-c2c(Nc3ccccn3)nc3c(C4=CCCCC4)c(-c4ccccc4)[nH]n3c2=O)cc1", "values": [{"measurement": "GI50", "setting": "OVCAR-4 ovarian", "result": 1590, "unit": "nM"}, {"measurement": "TGI", "setting": "OVCAR-4 ovarian", "result": "> 100000", "unit": "nM"}, {"measurement": "GI50", "setting": "SNB-19 CNS", "result": 2000, "unit": "nM"}, {"measurement": "TGI", "setting": "SNB-19 CNS", "result": "> 100000", "unit": "nM"}, {"measurement": "GI50", "setting": "UACC-62 melanoma", "result": 890, "unit": "nM"}, {"measurement": "TGI", "setting": "UACC-62 melanoma", "result": "> 100000", "unit": "nM"}, {"measurement": "GI50", "setting": "A498 renal", "result": 309, "unit": "nM"}, {"measurement": "TGI", "setting": "A498 renal", "result": "> 100000", "unit": "nM"}, {"measurement": "GI50", "setting": "SF-539 CNS", "result": 1460, "unit": "nM"}, {"measurement": "TGI", "setting": "SF-539 CNS", "result": "> 100000", "unit": "nM"}, {"measurement": "GI50", "setting": "SN12C renal", "result": 1990, "unit": "nM"}, {"measurement": "TGI", "setting": "SN12C renal", "result": "> 100000", "unit": "nM"}, {"measurement": "GI50", "setting": "SW-620 colon", "result": 3000, "unit": "nM"}, {"measurement": "TGI", "setting": "SW-620 colon", "result": "> 100000", "unit": "nM"}, {"measurement": "GI50", "setting": "DU-145 prostate", "result": 727, "unit": "nM"}, {"measurement": "TGI", "setting": "DU-145 prostate", "result": 9510, "unit": "nM"}, {"measurement": "GI50", "setting": "MOLT-4 leukemia", "result": 189, "unit": "nM"}, {"measurement": "TGI", "setting": "MOLT-4 leukemia", "result": 431, "unit": "nM"}, {"measurement": "GI50", "setting": "HS 578T breast", "result": 1060, "unit": "nM"}, {"measurement": "TGI", "setting": "HS 578T breast", "result": 14500, "unit": "nM"}, {"measurement": "GI50", "setting": "ACHN renal", "result": 1790, "unit": "nM"}, {"measurement": "TGI", "setting": "ACHN renal", "result": "> 100000", "unit": "nM"}, {"measurement": "GI50", "setting": "KM12 colon", "result": 2160, "unit": "nM"}, {"measurement": "TGI", "setting": "KM12 colon", "result": "> 100000", "unit": "nM"}, {"measurement": "GI50", "setting": "CAKI-1 renal", "result": 1380, "unit": "nM"}, {"measurement": "TGI", "setting": "CAKI-1 renal", "result": "> 100000", "unit": "nM"}, {"measurement": "GI50", "setting": "SF-295 CNS", "result": 1120, "unit": "nM"}, {"measurement": "TGI", "setting": "SF-295 CNS", "result": "> 100000", "unit": "nM"}, {"measurement": "GI50", "setting": "HCT-15 colon", "result": 1360, "unit": "nM"}, {"measurement": "TGI", "setting": "HCT-15 colon", "result": "> 100000", "unit": "nM"}, {"measurement": "GI50", "setting": "HCT-116 colon", "result": 1280, "unit": "nM"}, {"measurement": "TGI", "setting": "HCT-116 colon", "result": 5720, "unit": "nM"}, {"measurement": "GI50", "setting": "SK-MEL-28 melanoma", "result": 3090, "unit": "nM"}, {"measurement": "TGI", "setting": "SK-MEL-28 melanoma", "result": "> 100000", "unit": "nM"}, {"measurement": "GI50", "setting": "BT-549 breast", "result": 461, "unit": "nM"}, {"measurement": "TGI", "setting": "BT-549 breast", "result": "> 100000", "unit": "nM"}, {"measurement": "GI50", "setting": "SR leukemia", "result": 222, "unit": "nM"}, {"measurement": "TGI", "setting": "SR leukemia", "result": 1090, "unit": "nM"}, {"measurement": "GI50", "setting": "K-562 leukemia", "result": 928, "unit": "nM"}, {"measurement": "TGI", "setting": "K-562 leukemia", "result": "> 100000", "unit": "nM"}, {"measurement": "GI50", "setting": "SK-MEL-2 melanoma", "result": 2180, "unit": "nM"}, {"measurement": "TGI", "setting": "SK-MEL-2 melanoma", "result": 9100, "unit": "nM"}, {"measurement": "GI50", "setting": "OVCAR-8 ovarian", "result": 2110, "unit": "nM"}, {"measurement": "TGI", "setting": "OVCAR-8 ovarian", "result": "> 100000", "unit": "nM"}, {"measurement": "GI50", "setting": "HT29 colon", "result": 4210, "unit": "nM"}, {"measurement": "TGI", "setting": "HT29 colon", "result": "> 100000", "unit": "nM"}, {"measurement": "GI50", "setting": "UO-31 renal", "result": 3360, "unit": "nM"}, {"measurement": "TGI", "setting": "UO-31 renal", "result": "> 100000", "unit": "nM"}, {"measurement": "GI50", "setting": "HOP-62 NSCLC", "result": 717, "unit": "nM"}, {"measurement": "TGI", "setting": "HOP-62 NSCLC", "result": 9610, "unit": "nM"}, {"measurement": "GI50", "setting": "RXF 393 renal", "result": 108, "unit": "nM"}, {"measurement": "TGI", "setting": "RXF 393 renal", "result": 2720, "unit": "nM"}, {"measurement": "GI50", "setting": "U251 glioblastoma", "result": 1270, "unit": "nM"}, {"measurement": "TGI", "setting": "U251 glioblastoma", "result": "> 100000", "unit": "nM"}, {"measurement": "GI50", "setting": "NCI-H522 lung", "result": 1040, "unit": "nM"}, {"measurement": "TGI", "setting": "NCI-H522 lung", "result": 10900, "unit": "nM"}]}
